Read-outs that look alike come from different tables or passages of the source.

This note sets out measurements from patent publication US8008303B2, “Biphenyl derivatives and their use in treating hepatitis C” (AstraZeneca AB, priority 2005, dated 2011).

Series [1] deals with HCV replicon cells Huh 9B. Kind of series: HCV replicon assay (luciferase readout). The class given is cell-based. In a few lines: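 Compounds, made up at twice final strength (final DMSO 1%), were added to subgenomic replicon cells one day after plating. Incubation then ran 72 h at 37 °C, 5% CO2, without G418. Replication was quantified as firefly luciferase luminescence in lysed cells, with cytotoxicity assessed on a duplicate clear plate.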
Background: Replicon systems follow genome replication, usually without infectious particles.

For series [2], the system named is HCV replicon cells Huh 9B. The class given is cell-based.
Setting [3] is: Hepatitis C virus, 72 h, concentration reducing replicon level (luciferase activity) by 50% vs untreated cell control, 72 h incubation.
Setting [4] is: concentration reducing total cell area by 50% relative to DMSO controls, methylene blue, absorbance 620 nm, 72 h incubation.

With `Cc1ccc(NC(=O)C2CCCCCC2)cc1-c1ccc(C(=O)Nc2ccc(CN3CCS(=O)(=O)CC3)cc2)cc1` [Example 164, 5′-(Cycloheptanecarbonyl-amino)-2′-methyl-biphenyl-4-carboxylic acid [4-(1,1-dioxo-1lambda*6*-thiomorpholin-4-ylmethyl)-phenyl]-amide], in series [1] (setting [3]), the IC50 (as a rule, the concentration that inhibits the measured activity by half) was less than 1000 nM. Also, the TD50 result in series [2] (setting [4]) is recorded as “* (* < 50 μM)”.

In turn, `Cc1ccc(C(=O)Nc2ccc(N3CCOCC3)cc2)cc1-c1ccc(NC(=O)c2nc3ccccc3nc2O)cc1` [Example 104, 3-Hydroxy-quinoxaline-2-carboxylic acid [2′-methyl-5′-(4-morpholin-4-yl-phenylcarbamoyl)-biphenyl-4-yl]-amide] had a half-inhibitory concentration (IC50) in series [1] (setting [3]) of 1000 to 5000 nM. The TD50 result in series [2] (setting [4]) is “** (** > 50 μM)”.

`Cc1ccc(C(=O)Nc2ccc(N3CCOCC3)cc2)cc1-c1ccc(C(=O)NCc2cccc(CNC(=O)OC(C)(C)C)c2)cc1` [Example 47, [3-({[2′-Methyl-5′-(4-morpholin-4-yl-phenylcarbamoyl)-biphenyl-4-carbonyl]-amino}-methyl)-benzyl]-carbamic acid tert-butyl ester] displayed a concentration for half-maximal inhibition (IC50) in series [1] (setting [3]) of more than 5000 nM. Also, in series [2] (setting [4]), the TD50 entry is “** (** > 50 μM)”.

Turning to `Cc1ccc(NC(=O)c2ccc(F)cc2)cc1-c1ccc(C(=O)Nc2ccc(CN3CCS(=O)(=O)CC3)cc2)cc1` [Example 159, 5′-(4-Fluoro-benzoylamino)-2′-methyl-biphenyl-4-carboxylic acid [4-(1,1-dioxo-1lambda*6*-thiomorpholin-4-ylmethyl)-phenyl]-amide], the IC50 in series [1] (setting [3]) was less than 1000 nM. The TD50 entry in series [2] (setting [4]) was “* (* < 50 μM)”.

Consider `COc1ccccc1C(=O)Nc1ccc(-c2cccc(C(=O)Nc3ccc(N4CCOCC4)cc3)c2)c(C)c1` [Example 115, 4′-(2-Methoxy-benzoylamino)-2′-methyl-biphenyl-3-carboxylic acid (4-morpholin-4-yl-phenyl)-amide], for which, in series [1] (setting [3]), the IC50 fell in the range of 1000 to 5000 nM. For the same molecule, the TD50 entry in series [2] (setting [4]) is listed as “* (* < 50 μM)”.

As to `Cc1ccc(C(=O)Nc2ccc(N3CCOCC3)cc2)cc1-c1ccc(C(=O)Nc2cccc(OCc3ccccc3)c2)cc1` [Example 8, 6-Methyl-biphenyl-3,4′-dicarboxylic acid 4′-[(3-benzyloxy-phenyl)-amide] 3-[(4-morpholin-4-yl-phenyl)-amide]], the concentration for half-maximal inhibition (IC50) in series [1] lay within 1000 to 5000 nM. In addition, the TD50 result in series [2] is on record as “** (key: * < 50 μM; ** > 50 μM)”.

As to `Cc1ccc(NC(=O)CC2CCOCC2)cc1-c1ccc(C(=O)Nc2ccc(CN3CCS(=O)(=O)CC3)cc2)cc1` [Example 171, 2′-Methyl-5′-(2-tetrahydro-pyran-4-yl-acetylamino)-biphenyl-4-carboxylic acid [4-(1,1-dioxo-1lambda*6*-thiomorpholin-4-ylmethyl)-phenyl]-amide], in series [1] (setting [3]), the IC50 was less than 1000 nM. The TD50 result in series [2] (setting [4]) was “* (* < 50 μM)”.

Molecule `CC(=O)Nc1cccc(NC(=O)c2ccc(-c3cc(C(=O)Nc4ccc(N5CCOCC5)cc4)ccc3C)cc2)c1` [Example 72, 6-Methyl-biphenyl-3,4′-dicarboxylic acid 4′-[(3-acetylamino-phenyl)-amide] 3-[(4-morpholin-4-yl-phenyl)-amide]] returned an IC50 in series [1] of 1000 to 5000 nM. Further, in series [2], the TD50 result is “* (key: * < 50 μM; ** > 50 μM)”.

Molecule `Cc1ccc(NC(=O)c2cccn2C)cc1-c1ccc(C(=O)Nc2ccc(CN3CCS(=O)(=O)CC3)cc2)cc1` [Example 157, 1-Methyl-1H-pyrrole-2-carboxylic acid {4′-[4-(1,1-dioxo-1lambda*6*-thiomorpholin-4-ylmethyl)-phenylcarbamoyl]-6-methyl-biphenyl-3-yl}-amide] gave an IC50 in series [1] (setting [3]) of less than 1000 nM. Also, the TD50 entry in series [2] (setting [4]) is listed as “* (* < 50 μM)”.

For the molecule `CCN(CC)CCNC(=O)c1ccc(NC(=O)c2ccc(-c3cc(C(=O)NC4CC4)ccc3C)cc2)cc1` [Example 208, 6-Methyl-biphenyl-3,4′-dicarboxylic acid 3-cyclopropylamide 4′-{[4-(2-diethylamino-ethylcarbamoyl)-phenyl]-amide}], the 50% inhibitory concentration (IC50) in series [1] is more than 5000 nM. For the same molecule, in series [2], the TD50 result is “* (key: * < 50 μM; ** > 50 μM)”.

For the molecule `Cc1ccc(NC(=O)c2cncs2)cc1-c1ccc(C(=O)Nc2ccc(CN3CCS(=O)(=O)CC3)cc2)cc1` [Example 179, Thiazole-5-carboxylic acid {4′-[4-(1,1-dioxo-1lambda*6*-thiomorpholin-4-ylmethyl)-phenylcarbamoyl]-6-methyl-biphenyl-3-yl}-amide], the IC50 in series [1] (setting [3]) is less than 1000 nM. For the same molecule, the TD50 result in series [2] (setting [4]) is given as “* (* < 50 μM)”.

In series [1], `COc1ccc(C(=O)Nc2ccc(N3CCOCC3)cc2)cc1-c1ccc(C(=O)Nc2ccc(CN3CCN(S(=O)(=O)C(C)C)CC3)cc2)cc1` [Example 258, 6-Methoxy-biphenyl-3,4′-dicarboxylic acid 3-[(4-morpholin-4-yl-phenyl)-amide] 4′-({4-[4-(propane-2-sulfonyl)-piperazin-1-ylmethyl]-phenyl}-amide)] displayed a 50% inhibitory concentration (IC50) of less than 1000 nM. Moreover, in series [2] (setting [4]), the TD50 entry was “* (* < 50 μM)”.

`O=C(Nc1ccc(CN2CCS(=O)(=O)CC2)cc1)c1ccc(-c2cc(NC(=O)C3CCCCC3)ccc2Cl)cc1` [Example 193, 5′-(Cyclohexanecarbonyl-amino)-2′-chloro-biphenyl-4-carboxylic acid [4-(1,1-dioxo-1lambda*6*-thiomorpholin-4-ylmethyl)-phenyl]-amide] showed a half-inhibitory concentration (IC50) in series [1] (setting [3]) of less than 1000 nM. In series [2] (setting [4]), the TD50 result is “* (* < 50 μM)”.

On to `Cc1ccc(C(=O)Nc2ccc(N3CCOCC3)cc2)cc1-c1ccc(CNCCc2cnc[nH]2)cc1` [Example 100, 4′-{[2-(3H-Imidazol-4-yl)-ethylamino]-methyl}-6-methyl-biphenyl-3-carboxylic acid (4-morpholin-4-yl-phenyl)-amide], for which the IC50 in series [1] (setting [3]) lay in the range of 1000 to 5000 nM. Further, in series [2] (setting [4]), the TD50 entry is reported as “** (** > 50 μM)”.

`Cc1ccc(C(=O)Nc2ccc(N3CCOCC3)cc2)cc1-c1ccc(C(=O)Nc2ccc(CC#N)cc2)cc1` [Example 39, 6-Methyl-biphenyl-3,4′-dicarboxylic acid 4′-[(4-cyanomethyl-phenyl)-amide] 3-[(4-morpholin-4-yl-phenyl)-amide]] returned an IC50 in series [1] of 1000 to 5000 nM. The TD50 entry in series [2] was “* (key: * < 50 μM; ** > 50 μM)”.

For `Cc1ccc(CNC(CO)Cc2cnc[nH]2)cc1-c1ccc(C(=O)Nc2ccc(CN3CCS(=O)(=O)CC3)cc2)cc1` (stereo not drawn) [Example 200, 5′-{[1-Hydroxymethyl-2-(3H-imidazol-4-yl)-ethylamino]-methyl}-2′-methyl-biphenyl-4-carboxylic acid [4-(1,1-dioxo-1lambda*6*-thiomorpholin-4-ylmethyl)-phenyl]-amide], the half-maximal inhibitory concentration (IC50) in series [1] (setting [3]) is more than 5000 nM. Further, the TD50 entry in series [2] (setting [4]) is reported as “** (** > 50 μM)”.

In series [1] (setting [3]), `Cc1ccc(C(=O)Nc2ccc(N3CCOCC3)cc2)cc1-c1ccc(NC(=O)CNC(=O)c2ccccc2)cc1` [Example 105, 4′-(2-Benzoylamino-acetylamino)-6-methyl-biphenyl-3-carboxylic acid (4-morpholin-4-yl-phenyl)-amide] came in with an IC50 of 1000 to 5000 nM. In series [2] (setting [4]), the TD50 entry is listed as “** (** > 50 μM)”.

Regarding `Cc1ccc(C(=O)Nc2ccc(N3CCOCC3)cc2)cc1-c1ccc(C(=O)Nc2ccc(CN3CCOCC3)cc2)cc1` [Example 74, 6-Methyl-biphenyl-3,4′-dicarboxylic acid 4′-[(4-morpholin-4-ylmethyl-phenyl)-amide] 3-[(4-morpholin-4-yl-phenyl)-amide]], the IC50 in series [1] was 1000 to 5000 nM. Further, the TD50 entry in series [2] was “* (key: * < 50 μM; ** > 50 μM)”.

In turn, `Cc1ccc(NC(=O)CC2CC2)cc1-c1ccc(C(=O)Nc2ccc(CN3CCS(=O)(=O)CC3)cc2)cc1` [Example 178, 5′-(2-Cyclopropyl-acetylamino)-2′-methyl-biphenyl-4-carboxylic acid [4-(1,1-dioxo-1lambda*6*-thiomorpholin-4-ylmethyl)-phenyl]-amide] came in with a concentration for half-maximal inhibition (IC50) in series [1] (setting [3]) of less than 1000 nM. The TD50 result in series [2] (setting [4]) is reported as “* (* < 50 μM)”.

On to `O=C(Nc1ccc(CN2CCS(=O)(=O)CC2)cc1)c1ccc(-c2cc(NC(=O)C3CCCCC3)ccc2OC(F)(F)F)cc1` [Example 192, 5′-(Cyclohexanecarbonyl-amino)-2′-trifluoromethoxy-biphenyl-4-carboxylic acid [4-(1,1-dioxo-1lambda*6*-thiomorpholin-4-ylmethyl)-phenyl]-amide], for which, in series [1] (setting [3]), the IC50 is less than 1000 nM. Moreover, the TD50 result in series [2] (setting [4]) is “* (* < 50 μM)”.

In series [1] (setting [3]), `Cc1ccc(NC(=O)C(C)C)cc1-c1ccc(C(=O)Nc2ccc(CN3CCS(=O)(=O)CC3)cc2)cc1` [Example 183, 5′-Isobutyrylamino-2′-methyl-biphenyl-4-carboxylic acid [4-(1,1-dioxo-1lambda*6*-thiomorpholin-4-ylmethyl)-phenyl]-amide] displayed an IC50 of less than 1000 nM. In series [2] (setting [4]), the TD50 result is given as “* (* < 50 μM)”.

As to `Cc1ccc(-c2noc(C3CCCCC3)n2)cc1-c1ccc(C(=O)Nc2ccc(CN3CCS(=O)(=O)CC3)cc2)cc1` [Example 206, 5′-(5-Cyclohexyl-[1,2,4]oxadiazol-3-yl)-2′-methyl-biphenyl-4-carboxylic acid [4-(1,1-dioxo-1lambda*6*-thiomorpholin-4-ylmethyl)-phenyl]-amide], in series [1] (setting [3]), the half-maximal inhibitory concentration (IC50) was more than 5000 nM. Besides, the TD50 entry in series [2] (setting [4]) was “* (* < 50 μM)”.

Regarding `Cc1ccc(C(=O)Nc2ccc(N3CCOCC3)cc2)cc1-c1ccc(C(=O)Nc2cccc(C(F)(F)F)c2)cc1` [Example 23, 6-Methyl-biphenyl-3,4′-dicarboxylic acid 3-[(4-morpholin-4-yl-phenyl)-amide] 4′-[(3-trifluoromethyl-phenyl)-amide]], the IC50 in series [1] is 1000 to 5000 nM. Also, in series [2], the TD50 entry is listed as “* (key: * < 50 μM; ** > 50 μM)”.

Molecule `Cc1ccc(C(=O)Nc2ccc(N3CCOCC3)cc2)cc1-c1ccc(C(=O)NCc2ccccc2Sc2ccccc2CO)cc1` [Example 49, 6-Methyl-biphenyl-3,4′-dicarboxylic acid 4′-[2-(2-hydroxymethyl-phenylsulfanyl)-benzylamide] 3-[(4-morpholin-4-yl-phenyl)-amide]] yielded an IC50 in series [1] of less than 1000 nM. Besides, the TD50 result in series [2] was “** (key: * < 50 μM; ** > 50 μM)”.
